The text below walks through data of patent US20080058330A1, “Compounds and Combinations Thereof for Inhibiting Beta-Amyloid Production and Methods of Use Thereof” (Roskamp Research LLC, priority 2006, published 2008).

SMILES strings stand for the structures.

System in one data set: not given
Assay: not given
Conditions: not given
`CCOC(=O)C1=C(C)NC(C)=C(C(=O)OCC)C1c1ccccc1Cl` [Example 6, Diethyl 4-(2-chlorophenyl)-1,4-dihydro-2,6-dimethylpyridine-3,5-dicarboxylate]: the melting point (in general, the temperature of the solid-liquid transition) fell in the range of 120 to 121 °C.

`CC(=O)C1=C(C)NC(C)=C(C(C)=O)C1c1ccccc1Cl` [Example 7, 4-(2-Chlorophenyl)-1,4-dihydro-2,6-dimethylpyridine-3,5-di(2-ethanone)] had a melting point of 196 to 197 °C.

Take `COC(=O)C1=C(C)NC(C)=C(C(=O)OC)C1c1ccccc1Cl` [Example 8, Dimethyl 4-(2-chlorophenyl)-1,4-dihydro-2,6-dimethylpyridine-3,5-dicarboxylate]: the melting point is 188 to 189 °C.

Molecule `CC1=C(C(=O)OC(C)(C)C)C(c2ccccc2Cl)C(C(=O)OC(C)(C)C)=C(C)N1` [Example 9, Di-tert-butyl 4-(2-chlorophenyl)-1,4-dihydro-2,6-dimethylpyridine-3,5-dicarboxylate] displayed a melting point of 194 to 196 °C.

Turning to `COCCOC(=O)C1=C(C)NC(C)=C(C(=O)OCCOC)C1c1ccccc1Cl` [Example 10, Bis(2-methoxyethyl) 4-(2-chlorophenyl)-1,4-dihydro-2,6-dimethylpyridine-3,5-dicarboxylate], the melting point was in the range of 120 to 121 °C.

`CCOC(=O)C1=C(C)NC(C)=C(C(=O)OCC)C1c1ccccc1Br` [Example 11, Diethyl 4-(2-bromophenyl)-1,4-dihydro-2,6-dimethylpyridine-3,5-dicarboxylate]: the melting point was 144 to 145 °C.

On to `CC1=C(C(=O)OC(C)(C)C)C(c2ccccc2F)C(C(=O)OC(C)(C)C)=C(C)N1` [Example 13, Di-tert-butyl 4-(2-fluorophenyl)-1,4-dihydro-2,6-dimethylpyridine-3,5-dicarboxylate], for which the melting point was in the range of 201 to 202 °C.

Molecule `CC1=C(C(=O)OC(C)(C)C)C(c2ccccc2Br)C(C(=O)OC(C)(C)C)=C(C)N1` [Example 14, Di-tert-butyl 4-(2-bromophenyl)-1,4-dihydro-2,6-dimethylpyridine-3,5-dicarboxylate] gave a melting point of 162 to 164 °C.

In turn, `CCOC(=O)C1=C(C)NC(C)=C(C(=O)OCC)C1c1ccccc1[N+](=O)[O-]` [Example 14, Diethyl 1,4-dihydro-2,6-dimethyl-4-(2-nitrophenyl)pyridine-3,5-dicarboxylate] came in with a melting point of 120 to 121 °C.

As for `CC1=C(C(=O)OC(C)(C)C)C(c2ccccc2[N+](=O)[O-])C(C(=O)OC(C)(C)C)=C(C)N1` [Example 15, Di-tert-butyl 1,4-dihydro-2,6-dimethyl-4-(2-nitrophenyl)pyridine-3,5-dicarboxylate], the melting point lay in the range of 159 to 161 °C.

The next data set concerns 7W WT APP751 CHO cells. Put plainly: Screening of dihydropyridine compounds (Maybridge), Aβ1-40 and Aβ1-42 ELISA (Example 2). The class given is cell-based, Chinese hamster. The note with it: 30 μM, 24 hours (FIG. 5A, 5B). The protocol:
Dihydropyridine compounds were obtained from Maybridge (England). Each compound was dissolved in DMSO. 7W WT APP751 CHO cells overexpressing APP751 were plated into 96-well culture plates in 200 μL of culture medium. Each compound from the library was added to confluent cells to a final concentration of 30 μM. After 24 hours of treatment, culture medium was collected and dissolved 10-fold and 2-fold for measuring the level of Aβ1-40 and Aβ1-42, respectively. Aβ1-40 and Aβ1-42 were determined using commercially available ELISAs (Biosource, CA), following the recommendations of the manufacturer.
(In general: An ELISA detects its analyte on a solid surface through an enzyme-linked reagent.)
`COC(=O)C1=C(C)NC(C)=C(C(=O)OC)C1c1ccc(Cl)c(Cl)c1` [JFD 03293, dimethyl 4-(3,4-dichlorophenyl)-2,6-dimethyl-1,4-dihydropyridine-3,5-dicarboxylate]: the “concentration of Aβ1-40 compared to controls” value is listed as “significantly decreased”, the “concentration of Aβ1-42 compared to controls” value is given as “significantly decreased” and the “concentration of total β-amyloid (Aβ1-40+Aβ1-42) compared to controls” value was “significantly decreased”.

As for `CCOC(=O)C1=C(C)NC(C)=C(C(=O)OCC)C1c1ccc(Cl)c(Cl)c1` [JFD 03294, diethyl 4-(3,4-dichlorophenyl)-2,6-dimethyl-1,4-dihydropyridine-3,5-dicarboxylate], the “concentration of Aβ1-40 compared to controls” value is “significantly decreased”, the “concentration of Aβ1-42 compared to controls” value was “significantly decreased” and the “concentration of total β-amyloid (Aβ1-40+Aβ1-42) compared to controls” value was “significantly decreased”.

For `CCOC(=O)C1=C(C)NC(C)=C(C(=O)OCC)C1c1ccccc1Cl` [JFD 03305, diethyl 4-(2-chlorophenyl)-2,6-dimethyl-1,4-dihydropyridine-3,5-dicarboxylate], the “concentration of Aβ1-40 compared to controls” value was “significantly decreased”, the “concentration of Aβ1-42 compared to controls” value is “significantly decreased” and the “concentration of total β-amyloid (Aβ1-40+Aβ1-42) compared to controls” value is given as “significantly decreased”.

Turning to `CCOC(=O)C1=C(C)NC(C)=C(C(=O)OCC)C1c1ccccc1[N+](=O)[O-]` [JFD 03311, diethyl 2,6-dimethyl-4-(2-nitrophenyl)-1,4-dihydropyridine-3,5-dicarboxylate], the “concentration of Aβ1-40 compared to controls” value is given as “significantly decreased” and the “concentration of total β-amyloid (Aβ1-40+Aβ1-42) compared to controls” value is listed as “significantly decreased”.

As for `CCOC(=O)C1=C(C)NC(C)=C(C(=O)OCC)C1c1ccc(F)cc1` [JFD 03318, diethyl 4-(4-fluorophenyl)-2,6-dimethyl-1,4-dihydropyridine-3,5-dicarboxylate], the “concentration of Aβ1-40 compared to controls” value is on record as “significantly decreased”, the “concentration of Aβ1-42 compared to controls” value was “significantly decreased” and the “concentration of total β-amyloid (Aβ1-40+Aβ1-42) compared to controls” value is “significantly decreased”.

Regarding `O=C1CC(c2ccccc2)CC(=O)N1c1ccc(Oc2ccc(Cl)cc2)cc1` [PD 00463, 1-[4-(4-chlorophenoxy)phenyl]-4-phenyldihydropyridine-2,6(1H,3H)-dione], the “concentration of Aβ1-40 compared to controls” value is “significantly decreased”, the “concentration of Aβ1-42 compared to controls” value is given as “significantly decreased” and the “concentration of total β-amyloid (Aβ1-40+Aβ1-42) compared to controls” value is listed as “significantly decreased”.

Turning to `CCOC(=O)C1=C(C)NC(C)=C(C(=O)OCC)C1c1ccc(Cl)cc1Cl` [RJC 03403, diethyl 4-(2,4-dichlorophenyl)-2,6-dimethyl-1,4-dihydro-3,5-pyridinedicarboxylate], the “concentration of Aβ1-40 compared to controls” value is listed as “significantly decreased”, the “concentration of Aβ1-42 compared to controls” value is given as “significantly decreased” and the “concentration of total β-amyloid (Aβ1-40+Aβ1-42) compared to controls” value is recorded as “significantly decreased”.

Regarding `CCOC(=O)C1=C(C)NC(C)=C(C(=O)OCC)C1c1ccc(-c2ccccc2C(F)(F)F)o1` [RJC 03405, diethyl 2,6-dimethyl-4-{5-[2-(trifluoromethyl)phenyl]-2-furyl}-1,4-dihydro-3,5-pyridinedicarboxylate], the “concentration of Aβ1-40 compared to controls” value is on record as “significantly decreased” and the “concentration of total β-amyloid (Aβ1-40+Aβ1-42) compared to controls” value is listed as “significantly decreased”.

Regarding `CCOC(=O)C1=C(C)NC(C)=C(C(=O)OCC)C1c1ccc(OC)cc1Cl` [RJC 03413, diethyl 4-(2-chloro-4-methoxyphenyl)-2,6-dimethyl-1,4-dihydro-3,5-pyridinedicarboxylate], the “concentration of Aβ1-40 compared to controls” value is listed as “significantly decreased” and the “concentration of total β-amyloid (Aβ1-40+Aβ1-42) compared to controls” value was “significantly decreased”.

As to `COC(=O)C1=C(C)NC(C)=C(C(=O)OC)C1c1ccc(-c2ccsc2C(=O)OC)o1` [SEW 02070, dimethyl 4-{5-[2-(methoxycarbonyl)-3-thienyl]-2-furyl}-2,6-dimethyl-1,4-dihydropyridine-3,5-dicarboxylate], the “concentration of Aβ1-40 compared to controls” value is on record as “significantly decreased” and the “concentration of total β-amyloid (Aβ1-40+Aβ1-42) compared to controls” value is “significantly decreased”.

`CCOC(=O)C1=C(C)NC(C)=C(C(=O)OCC)C1c1cccc([N+](=O)[O-])c1` [XBX 00343, diethyl 2,6-dimethyl-4-(3-nitrophenyl)-1,4-dihydropyridine-3,5-dicarboxylate]: the “concentration of Aβ1-40 compared to controls” value was “significantly decreased” and the “concentration of total β-amyloid (Aβ1-40+Aβ1-42) compared to controls” value is “significantly decreased”.
